This data set in a line: logP by HPLC on reversed-phase columns (EEC Directive 79/831 Annex V.A8). The following applies: for log p [a]: pH 2.3. The format is physicochemical. As to the method:
The logP values were measured in accordance with EEC Directive 79/831 Annex V.A8 by HPLC (High Performance Liquid Chromatography) on reversed-phase columns (C 18) using the methods below:
[a] The determination was carried out in the acidic range at pH 2.3 using the mobile phases 0.1% aqueous phosphoric acid and acetronitrile linear gradient from 10% acetonitrile to 95% acetronitrile. [b] The LC-MS determination in the acid range was carried out at pH 2.7 using the mobile phases 0.1% aqueous formic acid and acetonitrile (contains 0.1% formic acid) linear gradient from 10% acetonitrile to 95% acetonitrile. [c] The LC-MS determination in the neutral range was carried out at pH 7.8 using the mobile phases 0.001 molar aqueous ammonium bicarbonate solution and acetonitrile linear gradient from 10% acetonitrile to 95% acetonitrile.

As to `Clc1ccc(Nc2ncc(Cl)c(NC3CC3)n2)cc1C1OCCO1` [Example 50], the “log p [b]” value (pH 2.7) came out at 2.31. For the same compound, the “log p [c]” value (pH 7.8) is 3.28.
In the case of `CCC1(c2cccc(Nc3ncc(Cl)c(NC4CC4)n3)c2)OCC(C)O1` (stereo not shown) [Example 74], the “log p [b]” value (pH 2.7) was found to be 2.67. For the same compound, the “log p [c]” value (pH 7.8) is recorded as 4.1.
For `C=C1COC(c2cccc(Nc3ncc(Br)c(NC4CCC4)n3)c2)OC1` [Example 82], in that order: 2.43 and 3.85.
As for `COc1ccc(Nc2ncc(Br)c(NC3CC3)n2)cc1C1OCCO1` [Example 138], the log p stood at 1.5 (pH 2.7) and 2.7 (pH 7.8).
Regarding `CC1CC(C(F)(F)F)OC(c2cccc(Nc3ncc(Cl)c(NC4CC4)n3)c2)O1` (stereo not shown) [Example 124], the “log p [b]” value (pH 2.7) was 2.84[b].
Consider `CC1CSC(c2cccc(Nc3ncc(Br)c(NC4CCC4)n3)c2)S1` (stereo not shown) [Example 165], for which the log p is, setting by setting: (pH 2.7) 3.49; (pH 7.8) 4.92.
For the compound `CC1(c2cccc(Nc3ncc(C(F)(F)F)c(NCC4CC4)n3)c2)OCCCO1` [Example 68], where the note is “pH 2.7”, the “log p [b]” value was 3.42[b].
As to `CC(C)(C)C1CCOC(c2cccc(Nc3ncc(Cl)c(NC4CC4)n3)c2)O1` (stereo not shown) [Example 121], the “log p [b]” value (pH 2.7) is 3.16[b].
Take `Brc1cnc(Nc2cccc(C3OC4COCC4O3)c2)nc1NC1CCC1` (stereo not shown) [Example 119]: the “log p [b]” value (pH 2.7) came out at 1.91. The “log p [c]” value (pH 7.8) was 3.23.
The chromatographic logP is lipophilicity estimated from chromatographic retention. In turn, `O=Cc1cccc(Nc2ncc(I)c(NC3CC3)n2)c1` [3-{[4-(Cyclopropylamino)-5-iodopyrimidin-2-yl]amino}benzenecarbaldehyde] yielded a chromatographic logP (pH 2.7, logP (pH 2.7)) of 1.96.
For the compound `CC1OC(c2cccc(Nc3ncc(Br)c(NC4CCC4)n3)c2)OC1C` (stereo not shown) [Example 17], the “log p [b]” value (pH 2.7) is 2.67. The “log p [c]” value (pH 7.8) is on record as 4.12.
For `Clc1cnc(Nc2cccc(C3SCCCS3)c2)nc1NC1CC1` [Example 35, 5-Chloro-N^4-cyclopropyl-N^2-[3-(1,3-dithian-2-yl)phenyl]pyrimidine-2,4-diamine], the chromatographic logP runs as follows: (pH 2.7, log p [b]) 2.44; (pH 2.7, logP (pH 2.7)) 2.44; (pH 7.8, log p [c]) 3.65.
Consider `CC(C)Nc1nc(Nc2cccc(C3OCCCO3)c2)ncc1Cl` [Example 149], for which the log p is, setting by setting: (pH 2.7) 1.73; (pH 7.8) 3.2.
With `Fc1cnc(Nc2cccc(C3OCCCO3)c2)nc1NC1CC1` [Example 51], the “log p [a]” value is 1.23. The “log p [b]” value (pH 2.7) is 1.28[b]. Moreover, the “log p [c]” value (pH 7.8) turned out to be 2.4.
Take `CC1(C)COC(C)(c2cccc(Nc3ncc(Cl)c(NC4CC4)n3)c2)OC1` [Example 71]: the “log p [b]” value (pH 2.7) was 2.99. For the same compound, the “log p [c]” value (pH 7.8) came to 4.35.
Consider `C=C1COC(c2cccc(Nc3ncc(Cl)c(NC4CC4)n3)c2)OC1` [Example 92], for which, under “pH 2.7”, the “log p [b]” value is reported as 2.01. Also, the “log p [c]” value (pH 7.8) came to 3.18.
Consider `CC1CC1Nc1nc(Nc2cccc(C3OCCO3)c2)ncc1C(F)(F)F` (stereo not shown) [Example 129], for which the “log p [b]” value (pH 2.7) was found to be 3.03. For the same compound, the “log p [c]” value (pH 7.8) is given as 3.58.
For `Clc1cnc(Nc2cccc(C3OCCO3)c2)nc1NC1CCC1` [Example 31], in that order: 1.91 and 3.23.
For `FC(F)(F)c1cnc(Nc2cccc(C3OC4COCC4O3)c2)nc1NC1CCC1` (stereo not shown) [Example 112], in that order: 2.79 and 3.37.
Consider `Clc1cnc(Nc2cccc(C3OCC4(CC4)CO3)c2)nc1NC1CC1` [Example 123], for which the “log p [b]” value (pH 2.7) is 2.09. Also, the “log p [c]” value (pH 7.8) is 3.32.
For the compound `COCC(C)Nc1nc(Nc2cccc(C=O)c2)ncc1Cl` (stereo not shown) [3-({5-Chloro-4-[(1-methoxypropan-2-yl)amino]pyrimidin-2-yl}amino)benzenecarbaldehyde], the chromatographic logP (pH 2.7, logP (pH 2.7)) is 1.8.
Turning to `COc1ccc(Nc2ncc(C(F)(F)F)c(NC3CC3)n2)cc1C1OCCCO1` [Example 136], the log p is 2.38 (pH 2.7) and 3.18 (pH 7.8).
Regarding `CC1CC1Nc1nc(Nc2cccc(C3OCCO3)c2)ncc1Cl` (stereo not shown) [Example 75], under “pH 7.8”, the “log p [c]” value is 3.21[c].
As for `O=Cc1cccc(Nc2ncc(Cl)c(NCC3CC3)n2)c1` [3-({5-Chloro-4-[(cyclopropylmethyl)amino]pyrimidin-2-yl}amino)benzenecarbaldehyde], the chromatographic logP (pH 2.7, logP (pH 2.7)) stood at 1.94.
Regarding `CC1CSC(c2cccc(Nc3ncc(Br)c(NC4CC4)n3)c2)S1` (stereo not shown) [Example 167], the log p was found to be 3.1 (pH 2.7) and 4.31 (pH 7.8).
With `O=[N+]([O-])c1ccccc1C1COC(c2cccc(Nc3ncc(Cl)c(NC4CC4)n3)c2)O1` (stereo not shown) [Example 37], the “log p [b]” value (pH 2.7) is 2.89. Further, the “log p [c]” value (pH 7.8) is listed as 4.
On to `C#CCNc1nc(Nc2cccc(C=O)c2)ncc1Cl` [3-{[5-Chloro-4-(prop-2-yn-1-ylamino)pyrimidin-2-yl]amino}benzenecarbaldehyde], for which the chromatographic logP (pH 2.7, logP (pH 2.7)) came to 1.74.
Consider `COc1ccc(Nc2ncc(Br)c(NC3CCC3)n2)cc1C1OCCO1` [Example 139], for which the log p reads like this: (pH 2.7) 1.79; (pH 7.8) 3.29.
As for `Fc1ccc(Nc2ncc(C(F)(F)F)c(NC3CC3)n2)cc1C1OCCCO1` [Example 147], the log p runs as follows: (pH 2.7) 2.27; (pH 7.8) 3.40.
As for `CC1COC(c2cccc(Nc3ncc(Cl)c(NC4CC4)n3)c2)O1` (stereo not shown) [Example 8], the “log p [b]” value (pH 2.7) was 1.9[b].
Under “pH 2.7, logP (pH 2.7)”, `O=Cc1cccc(Nc2ncc(Br)c(NC3CCC3)n2)c1` [3-{[5-Bromo-4-(cyclobutylamino)pyrimidin-2-yl]amino}benzenecarbaldehyde] displayed a chromatographic logP of 2.35.
For the compound `CCC1COC(c2cccc(Nc3ncc(Cl)c(NC4CCC4)n3)c2)O1` (stereo not shown) [Example 90], the “log p [b]” value (pH 2.7) came out at 2.65. Moreover, the “log p [c]” value (pH 7.8) is recorded as 4.18.
For `COCC1COC(c2cccc(Nc3ncc(Cl)c(NC4CCC4)n3)c2)O1` (stereo not shown) [Example 114], in that order: 2.09 and 3.42.
On to `COCC(C)Nc1nc(Nc2cccc(C3OCCO3)c2)ncc1Cl` (stereo not shown) [Example 61], for which the “log p [b]” value (pH 2.7) was 1.62[b].
Take `Clc1cnc(Nc2cccc(C3OCC(c4ccccc4)O3)c2)nc1NC1CC1` (stereo not shown) [Example 29]: under “pH 7.8”, the “log p [c]” value was 3.93[c].
As to `Fc1ccc(Nc2ncc(Br)c(NC3CC3)n2)cc1C1OCCO1` [Example 141], the log p reads like this: (pH 2.7) 1.89; (pH 7.8) 2.98.
For the compound `CC1(C)COC(c2cccc(Nc3ncc(Cl)c(NC4CC4)n3)c2)OC1` [Example 2], the “log p [b]” value (pH 2.7) was 2.45[b].
`CC1(C)COC(c2cccc(Nc3ncc(Br)c(NC4CCC4)n3)c2)OC1` [Example 21]: the “log p [b]” value (pH 2.7) amounted to 3. In addition, where the note is “pH 7.8”, the “log p [c]” value turned out to be 4.51.
Regarding `CC1(c2cccc(Nc3ncc(C(F)(F)F)c(NCC4CC4)n3)c2)OCCO1` [Example 10], the “log p [a]” value was determined as 3.16. The “log p [b]” value (pH 2.7) was 3.15[b]. In addition, the “log p [c]” value (pH 7.8) is 3.79.
Turning to `Fc1ccc(Nc2ncc(Br)c(NC3CCC3)n2)cc1C1OCCCO1` [Example 146], the log p is, setting by setting: (pH 2.7) 2.3; (pH 7.8) 3.75.
`O=Cc1cccc(Nc2ncc(Br)c(NC3CC3)n2)c1` [3-{[5-Bromo-4-(cyclopropylamino)pyrimidin-2-yl]amino}benzenecarbaldehyde] displayed a chromatographic logP (pH 2.7, logP (pH 2.7)) of 1.93.
Take `CCN(CC)CC1COC(c2cccc(Nc3ncc(Cl)c(NC4CC4)n3)c2)O1` (stereo not shown) [Example 40, 5-Chloro-N^4-cyclopropyl-N^2-(3-{4-[(diethylamino)methyl]-1,3-dioxolan-2-yl}phenyl)-pyrimidine-2,4-diamine]: the chromatographic logP is 1.07 (pH 2.7, log p [b]); 1.05 (pH 2.7, logP (pH 2.7)); 3.9 (pH 7.8, log p [c]).
With `CCOC(OCC)c1cccc(Nc2ncc(Cl)c(NC3CC3)n2)c1` [Example 64], the “log p [b]” value (pH 2.7) worked out at 2.58. The “log p [c]” value (pH 7.8) was found to be 3.86.
On to `Cc1cnc(Nc2cccc(C3OCCCO3)c2)nc1NC1CC1` [Example 55], for which the “log p [a]” value is reported as 1.32. Further, the “log p [b]” value (pH 2.7) was 1.28[b]. In addition, the “log p [c]” value (pH 7.8) is 2.37.
As to `CC1OC(c2cccc(Nc3ncc(Cl)c(NC4CC4)n3)c2)OC1C` (stereo not shown) [Example 3], the “log p [b]” value (pH 2.7) was 2.2[b].
In the case of `CCOC1COC(c2cccc(Nc3ncc(Cl)c(NC4CC4)n3)c2)OC1` (stereo not shown) [Example 125], where the note is “pH 2.7”, the “log p [b]” value worked out at 2.07. Further, the “log p [c]” value (pH 7.8) was 3.27.
Consider `Clc1cnc(Nc2ccc(C3OCCCO3)cc2)nc1NC1CC1` [Example 135], for which the log p is, setting by setting: (pH 2.7) 1.72; (pH 7.8) 2.82.
As to `CC(C)(C)C1CCOC(c2cccc(Nc3ncc(Br)c(NC4CC4)n3)c2)O1` (stereo not shown) [Example 120], the “log p [b]” value (pH 2.7) is 3.34. For the same compound, the “log p [c]” value (pH 7.8) is recorded as 4.7.
In turn, `CC(=O)c1ccc(Nc2ncc(Cl)c(NC3CC3)n2)cc1` [1-(4-{[5-Chloro-4-(cyclopropylamino)pyrimidin-2-yl]amino}phenyl)ethanone] displayed a chromatographic logP (pH 2.7, logP (pH 2.7)) of 1.93.
In the case of `Clc1cnc(Nc2cccc(C3OC4COCC4O3)c2)nc1NC1CCC1` (stereo not shown) [Example 118], the “log p [b]” value (pH 2.7) was found to be 1.77. Besides, under “pH 7.8”, the “log p [c]” value came out at 3.04.
For the setting “pH 2.7, logP (pH 2.7)”, `O=Cc1cccc(Nc2ncc(C(F)(F)F)c(NC3CC3)n2)c1` [3-{[4-(Cyclopropylamino)-5-(trifluoromethyl)pyrimidin-2-yl]amino}benzenecarbaldehyde] had a chromatographic logP of 2.73.
For the compound `CC1(c2cccc(Nc3ncc(C(F)(F)F)c(NC4CCC4)n3)c2)OCCCO1` [Example 69], the “log p [b]” value (pH 2.7) amounted to 3.81. The “log p [c]” value (pH 7.8) was 4.24.
On to `Clc1cnc(Nc2cccc(C3OCCC(c4ccccc4)O3)c2)nc1NC1CC1` (stereo not shown) [Example 94], for which, where the note is “pH 2.7”, the “log p [b]” value was 2.83. Besides, under “pH 7.8”, the “log p [c]” value is 4.11.

Values taken from patent US20110245249A1, “Heterocyclically Substituted Anilinopyrimidines” (Bayer CropScience AG, priority 2008, published 2011).
